The source of these data is US9192595B2, “Compounds with a skin pigmenting activity and pharmaceutical or cosmetic compositions containing them” (priority 2010, dated 2015).

One test relates to Normal human scalp skin. As to the kind of experiment: Epidermal pigmentation in full-thickness skin organ culture (quantitative Masson-Fontana staining). The format is cell-based. The protocol:
This experimental study on the active ingredient octatrienoic acid according to the invention was based on organ cultures of skin biopsies, which were tested in 4 groups (3 skin biopsies/well) and incubated with different concentrations of the active ingredient for 6 days.
Normal human scalp skin was obtained from a person undergoing routine face-lift surgery, subject to their informed consent. All experiments were performed in accordance with the Declaration of Helsinki, with the approval of an ad hoc Ethical Committee.
Biopsies 3-4 mm in size were cultured at 37° C. for 6 days in Williams' E medium (Biochrom, Cambridge, U.K.) supplemented with 100 IU mL^−1 penicillin, 10 μg mL^−1 streptomycin (Gibco, Karlsruhe, Germany), 10 μg mL^−1 insulin (Sigma, Taufkirchen, Germany), 10 ng mL^−1 hydrocortisone (Sigma) and 2 mmol L^−1 L-glutamine (Invitrogen, Paisley, UK).
Three different concentrations of octatrienoic acid (0.1 μg/mL, 0.25 μg/mL, 0.5 μg/mL) or the reference medium were administered once, at each change of medium (i.e. every 48 hours).
For histochemical melanin assessment, Masson-Fontana staining was applied to frozen adult human scalp skin sections. Melanin stained as brown spots and the degree of pigmentation was evaluated using the quantitative Masson-Fontana test, as described elsewhere (Ito et al., 2005). This method gives a sensitive and reliable indication of changes in melanin synthesis, as shown by standard tyrosinase expression and enzyme activity assays. (Kauser et al., 2006)
Staining intensity was analysed in a previously-defined reference area of the epidermis using ImageJ software (National Institute of Health).
The statistical analysis was performed using Student's two-tailed t-test for independent samples.

In another test the test system is tyrosinase. The test can be described thus: Tyrosinase enzymatic activity by spectrophotometry on melanocyte cell lysates. The settings on record: 72 h; 40 and 55 μM; NHM LP and NHM HP; p<0.05 vs. Ctr; FIG. 4. The format is cell-based, human. An excerpt:
(§1) A second experimental study assessed the action of the compounds according to the invention on the phenomena of melanocyte differentiation in the melanogenic process, as described below with reference to the attached drawings in FIGS. 3, 4 and 5. For this purpose, octatrienoic acid (called Octa in the diagrams, for the sake of brevity) was used on foreskin primary melanocyte cultures with varying degrees of basal pigmentation to assess the following parameters: • a) mRNA and tyrosinase protein expression, using real-time RT-PCR and Western-blot methods; • b) enzymatic activity of tyrosinase by spectrophotometry; • c) Quantification of melanin genesis by spectrophotometry.
The activity of tyrosinase was evaluated by spectrophotometry on cell lysates derived from specimens incubated for 72 h with octatrienoic acid at concentrations of 40 and 55 μM, vs. control culture.
For these columns, *=p<0.05 vs. Ctr.

For a further test, the system named is tyrosinase protein. The test can be described thus: Western blot analysis of tyrosinase protein expression in primary melanocyte cultures. The format is cell-based, human. The following applies: 72 h; same doses (40 and 55); Western blot on protein extracts.
Source text: as §1

The subject of the next test is tyrosinase mRNA. The test can be described thus: Tyrosinase mRNA expression by real-time RT-PCR in primary melanocyte cultures. The settings on record: 24 h incubation; 40 and 55 μm; NHM LP and NHM HP; vs. Ctr; FIG. 3. The format is cell-based, human.
Source text: as §1
Tyrosinase mRNA expression was assessed by real-time RT-PCR on mRNA specimens extracted from cells after 24 h of incubation with octatrienoic acid at concentrations of 40 and 55 μm.
Forskoline (FSK), a known adenylate cyclase activator capable of promoting melanin synthesis, was used as a control for comparison with the activity of octatrienoic acid.
For these columns, *=p<0.01 vs. Ctr, **=p<0.001 vs. Ctr, and $=p<0.05 vs. Ctr.

The subject of test [1] is foreskin primary melanocyte cultures. The test can be described thus: Intracellular melanin content by spectrophotometry in melanocyte cell lysates. The format is cell-based, human. The following applies: 72 h; 40 and 55 μM; NHM LP and NHM HP; vs. Ctr; FIG. 5.
Source text: as §1
In FIG. 5, *=p<0.05 vs. Ctr, **=p<0.01 vs. Ctr, $=p<0.001 vs. ctr.

For `C/C=C/C=C/C=C/C(=O)O` [octatrienoic acid], in the test with Normal human scalp skin (day 6, each dose (0.1, 0.25, 0.5 μg/mL) by comparison with the medium alone, FIG. 1), the “intensity of Masson-Fontana staining” value is “marked increase”. In addition, the “pigmentation in the basal layer of the epidermis” value in the test on Normal human scalp skin (day 6, each dose administered, microphotographs x200, FIG. 2) is on record as “increased pigmentation”. Further, the skin pigmentation entry in the test on Normal human scalp skin (skin culture, all three doses tested (0.1, 0.25, 0.5 μg/mL), 6 days) was “increased the skin pigmentation”. For the same molecule, in the test on tyrosinase, the “tyrosinase enzymatic activity, % of the Ctr” value is reported as “significant increase”. Moreover, in the test with tyrosinase protein, the “melanogenic enzyme (tyrosinase) protein expression” value is on record as “induced melanogenic enzyme protein expression”. Moreover, the “tyrosinase mRNA expression (Rel tyr mRNA expression, fold change)” value in the test on tyrosinase mRNA is “significant induction”. Also, in test [1], the “quantity of intracellular melanins” value is “significant induction”.
